Laboratory results published in patent US12338256B2, “Aza-tetracyclic oxazepine compounds and uses thereof” (Genentech, Inc., priority 2022, dated 2025).

How the values were obtained:
[1] = test system: HPAC (homozygous mutant KRAS G12D human pancreatic cell line); assay: KRAS 3D-Cell Proliferation Assay, HPAC (Example 503); format: cell-based; conditions: Homo sapiens, HPAC, 168 h, HPAC 3D culture, 7 days, CellTiter-Glo 3D; read-out: Prolif HPAC 3D ATP IC50
Experimental: (§1) Example 503: KRAS 3D-Cell Proliferation Assays. Cellular potencies of compounds are assessed by evaluating inhibition of proliferation in 3D cultures of homozygous mutant KRAS G12D human pancreatic cell lines (AsPC-1 and HPAC) as compared to a KRAS wild type human lung adenocarcinoma cell line (PC-9 and/or H1975). Cells are seeded into 384-well black round-bottom, ultra-low attachment assay plates in 50 uL cell growth medium (RPMI-1640 with 10% fetal bovine serum and 2 mM L-glutamine). After overnight incubation at 37° C. and 5% CO2, compounds solubilized in DMSO are added as dilution series to the wells in a total volume of 150 nL (0.3% DMSO final). The cells are incubated for 7 days at 37° C. and 5% CO2. Cell proliferation is quantitated by addition of 40 uL/well of CellTiter-GloÒ 3D (Promega), and the well contents are mixed 20× at high speed using liquid handling automation workstation (Bravo with 384-well head) and centrifuged at 1500 rpm for 2 minutes to eliminate bubbles. This reagent in combination with mechanical disruption releases the cellular ATP to promote activity in a luciferase-based enzyme/substrate chemiluminescent detection system. After a 30-minute incubation under ambient conditions with shaking and an additional 10 minutes without shaking, the luminescence is read on a plate reader (e.g., EnVision [PerkinElmer]). The results are normalized to percent inhibition based on the following control samples: DMSO (0% inhibition) and 1 μM staurosporine (100% inhibition). The normalized luminescence results are plotted against compound concentration, and the data are fit to a 4-parameter Hill equation to determine the IC50 values.

[2] = test system: H1975 (KRAS wild type human lung adenocarcinoma cell line); assay: KRAS 3D-Cell Proliferation Assay, H1975 (Example 503); format: cell-based; conditions: Homo sapiens, NCI-H1975, 168 h, H1975 3D culture, 7 days, CellTiter-Glo 3D; read-out: Prolif H1975 3D ATP IC50
Experimental: as §1

Work on Cc1c(F)c(N)cc(-c2nc3c4c(nc(OCC56CCN5CC(F)(F)C6)nc4c2F)N2C[C@H]4CC[C@H](N4)[C@H]2[C@H](C(F)(F)F)O3)c1C(F)(F)F (mixture of isomers) [Compound 244, 5-((5R,5aS,6S,9R)-12-((3,3-Difluoro-1-azabicyclo[3.2.0]heptan-5-yl)methoxy)-1-fluoro-5-(trifluoromethyl)-5a,6,7,8,9,10-hexahydro-5H-4-oxa-3,10a,11,13,14-pentaaza-6,9-methanonaphtho[1,8-ab]heptalene-2-yl)-2-fluoro-3-methyl-4-(trifluoromethyl)aniline] yielded an IC50 [1] of 6.14 nM and an IC50 [2] of 258 nM.

Work on Cc1c(F)c(N)cc(-c2nc3c4c(nc(OCC5(CN6CCO[C@H](CF)C6)CC5)nc4c2F)N2C[C@H]4CC[C@H](N4)[C@H]2[C@H](C)O3)c1C(F)(F)F [Compound 171, 2-Fluoro-5-((5S,5aS,6S,9R)-1-fluoro-12-((1-(((S)-2-(fluoromethyl)morpholino)methyl)cyclopropyl)methoxy)-5-methyl-5a,6,7,8,9,10-hexahydro-5H-4-oxa-3,10a,11,13,14-pentaaza-6,9-methanonaphtho[1,8-ab]heptalen-2-yl)-3-methyl-4-(trifluoromethyl)aniline] yielded an IC50 [1] of 1.33 nM and an IC50 [2] of 904 nM.

Cc1nc(N)cc(-c2nc3c4c(nc(OCC5(CN6CC7CC(F)(F)C7C6)CC5)nc4c2F)N2C[C@H]4CC[C@H](N4)[C@H]2[C@H](C)O3)c1C(F)(F)F (mixture of isomers) [Compound 264, 4-((5S,5aS,6S,9R)-12-((1-((6,6-difluoro-3-azabicyclo[3.2.0]heptan-3-yl)methyl)cyclopropyl)methoxy)-1-fluoro-5-methyl-5a,6,7,8,9,10-hexahydro-5H-4-oxa-3,10a,11,13,14-pentaaza-6,9-methanonaphtho[1,8-ab]heptalene-2-yl)-6-methyl-5-(trifluoromethyl)pyridin-2-amine] was tested, and the IC50 [1] was 5.56 nM and the IC50 [2] was 11000 nM.

Cc1c(F)c(N)cc(-c2nc3c4c(nc(OC[C@@H](F)CN5CC(CO)(CO)C5)nc4c2F)N2C[C@H]4CC[C@H](N4)[C@H]2[C@H](C)O3)c1C(F)(F)F [Compound 146] was tested, and the IC50 [1] was 1740 nM and the IC50 [2] was 20000 nM.

Compound Cc1c(F)c(N)cc(-c2nc3c4c(nc(OCC[C@@H]5CC[C@H]6COCCN56)nc4c2F)N2C[C@H]4CC[C@H](N4)[C@H]2[C@H](C)O3)c1C(F)(F)F [Compound 154, 2-Fluoro-5-((5S,5aS,6S,9R)-1-fluoro-12-(2-((6S,8aS)-hexahydro-1H-pyrrolo[2,1-c][1,4]oxazin-6-yl)ethoxy)-5-methyl-5a,6,7,8,9,10-hexahydro-5H-4-oxa-3,10a,11,13,14-pentaaza-6,9-methanonaphtho[1,8-ab]heptalen-2-yl)-3-methyl-4-(trifluoromethyl)aniline] has an IC50 [1] of 20.5 nM and an IC50 [2] of 4100 nM.

With Cc1c(F)c(N)cc(-c2nc3c4c(nc(OC[C@@]56CCC(C)N5C[C@H](F)C6)nc4c2F)N2C[C@H]4CC[C@H](N4)[C@H]2[C@H](C)O3)c1C(F)(F)F (stereo partly drawn) [Compound 122, 2-fluoro-5-((5S,5aS,6S,9R)-1-fluoro-12-(((2R,7aS)-2-fluoro-5-methyltetrahydro-1H-pyrrolizin-7a(5H)-yl)methoxy)-5-methyl-5a,6,7,8,9,10-hexahydro-5H-4-oxa-3,10a,11,13,14-pentaaza-6,9-methanonaphtho[1,8-ab]heptalen-2-yl)-3-methyl-4-(trifluoromethyl)aniline] the IC50 [1] was 1.84 nM and the IC50 [2] was 487 nM.

For Cc1cc(N)c(F)c(-c2nc3c4c(nc(OC[C@@H]5CC[C@H]6COCCN65)nc4c2F)N2C[C@H]4CC[C@H](N4)[C@H]2[C@H](C)O3)c1Cl [Compound 101, 4-Chloro-2-fluoro-3-((5S,5aS,6S,9R)-1-fluoro-12-(((6S,8aS)-hexahydro-1H-pyrrolo[2,1-c][1,4]oxazin-6-yl)methoxy)-5-methyl-5a,6,7,8,9,10-hexahydro-5H-4-oxa-3,10a,11,13,14-pentaaza-6,9-methanonaphtho[1,8-ab]heptalen-2-yl)-5-methylaniline], the IC50 [1] was 41.5 nM and the IC50 [2] was 8490 nM.

With Cc1nc(N)c(C)c(-c2nc3c4c(nc(OC[C@@]56CCCN5C[C@H](F)C6)nc4c2F)N2C[C@H]4CC[C@H](N4)[C@H]2[C@H](C)O3)c1C(F)(F)F [Compound 198, 4-((5S,5aS,6S,9R)-1-Fluoro-12-(((2R,7aS)-2-fluorotetrahydro-1H-pyrrolizin-7a(5H)-yl)methoxy)-5-methyl-5a,6,7,8,9,10-hexahydro-5H-4-oxa-3,10a,11,13,14-pentaaza-6,9-methanonaphtho[1,8-ab]heptalen-2-yl)-3,6-dimethyl-5-(trifluoromethyl)pyridin-2-amine] the IC50 [1] was 13 nM and the IC50 [2] was 3720 nM.

C[C@@H]1Oc2nc(-c3cc(N)c(F)c(F)c3C(F)(F)F)c(F)c3nc(OCC45CCN4CC(F)(F)C5)nc(c23)N2C[C@H]3CC[C@H](N3)[C@@H]12 (stereo partly drawn) [Compound 155, 5-((5S,5aS,6S,9R)-12-((3,3-difluoro-1-azabicyclo[3.2.0]heptan-5-yl)methoxy)-1-fluoro-5-methyl-5a,6,7,8,9,10-hexahydro-5H-4-oxa-3,10a,11,13,14-pentaaza-6,9-methanonaphtho[1,8-ab]heptalen-2-yl)-2,3-difluoro-4-(trifluoromethyl)aniline] gave an IC50 [1] of 8.84 nM and an IC50 [2] of 4750 nM.

Work on Cc1nc(N)cc(-c2nc3c4c(nc(OCC5(CN6CC7CCOC7C6)CC5)nc4c2F)N2C[C@H]4CC[C@H](N4)[C@H]2[C@H](C)O3)c1C(F)(F)F (stereo partly drawn) [Compound 280, 4-((5S,5aS,6S,9R)-1-fluoro-12-((1-((hexahydro-5H-furo[2,3-c]pyrrol-5-yl)methyl)cyclopropyl)methoxy)-5-methyl-5a,6,7,8,9,10-hexahydro-5H-4-oxa-3,10a,11,13,14-pentaaza-6,9-methanonaphtho[1,8-ab]heptalene-2-yl)-6-methyl-5-(trifluoromethyl)pyridin-2-amine] yielded an IC50 [1] of 1.77 nM and an IC50 [2] of 1340 nM.

With Cc1nc(N)cc(-c2nc3c4c(nc(OCC5(CN6CCOC7(CC7)C6)CC5)nc4c2F)N2C[C@H]4CC[C@H](N4)[C@H]2[C@H](C)O3)c1C(F)(F)F [Compound 212, 4-((5S,5aS,6S,9R)-12-((1-((4-Oxa-7-azaspiro[2.5]octan-7-yl)methyl)cyclopropyl)methoxy)-1-fluoro-5-methyl-5a,6,7,8,9,10-hexahydro-5H-4-oxa-3,10a,11,13,14-pentaaza[6,9]methanonaphtho[1,8-ab]heptalene-2-yl)-6-methyl-5-(trifluoromethyl)pyridin-2-amine] the IC50 [1] was 1.64 nM and the IC50 [2] was 389 nM.

Work on C[C@@H]1Oc2nc(-c3cc(N)cc4c3CC4)c(F)c3nc(OC[C@@]45CCCN4C[C@H](F)C5)nc(c23)N2C[C@H]3CC[C@H](N3)[C@@H]12 [Compound 201, 5-((5S,5aS,6S,9R)-1-Fluoro-12-(((2R,7aS)-2-fluorotetrahydro-1H-pyrrolizin-7a(5H)-yl)methoxy)-5-methyl-5a,6,7,8,9,10-hexahydro-5H-4-oxa-3,10a,11,13,14-pentaaza-6,9-methanonaphtho[1,8-ab]heptalen-2-yl)bicyclo[4.2.0]octa-1(6),2,4-trien-3-amine] yielded an IC50 [1] of 407 nM and an IC50 [2] of 10600 nM.

In the case of C[C@@H]1Oc2nc(-c3cc(N)c(F)cc3CC(F)F)c(F)c3nc(OC[C@@]45CCCN4C[C@H](F)C5)nc(c23)N2C[C@H]3CC[C@H](N3)[C@@H]12 [Compound 187, 4-(2,2-Difluoroethyl)-2-fluoro-5-((5S,5aS,6S,9R)-1-fluoro-12-(((2R,7aS)-2-fluorotetrahydro-1H-pyrrolizin-7a(5H)-yl)methoxy)-5-methyl-5a,6,7,8,9,10-hexahydro-5H-4-oxa-3,10a,11,13,14-pentaaza-6,9-methanonaphtho[1,8-ab]heptalene-2-yl)aniline], the IC50 [1] is reported as 34.8 nM and the IC50 [2] is reported as 18900 nM.

Work on Cc1nc(N)c(F)c(-c2nc3c4c(nc(OCC5(CN6C[C@H]7C[C@@H]6CO7)CC5)nc4c2F)N2C[C@H]4CC[C@H](N4)[C@H]2[C@H](C)O3)c1C(F)(F)F [Compound 223, 4-((5S,5aS,6S,9R)-12-((1-(((1R,4R)-2-Oxa-5-azabicyclo[2.2.1]heptan-5-yl)methyl)cyclopropyl)methoxy)-1-fluoro-5-methyl-5a,6,7,8,9,10-hexahydro-5H-4-oxa-3,10a,11,13,14-pentaaza-6,9-methanonaphtho[1,8-ab]heptalene-2-yl)-3-fluoro-6-methyl-5-(trifluoromethyl)pyridin-2-amine] yielded an IC50 [1] of 6.46 nM and an IC50 [2] of 1230 nM.

C[C@@H]1Oc2nc(-c3cccc4sc(N)nc34)c(F)c3nc(OC[C@@]45CCCN4C[C@H](F)C5)nc(c23)N2C[C@H]3CC[C@H](N3)[C@@H]12 [Compound 116, 4-((5S,5aS,6S,9R)-1-fluoro-12-(((2R,7aS)-2-fluorotetrahydro-1H-pyrrolizin-7a(5H)-yl)methoxy)-5-methyl-5a,6,7,8,9,10-hexahydro-5H-4-oxa-3,10a,11,13,14-pentaaza-6,9-methanonaphtho[1,8-ab]heptalen-2-yl)benzo[d]thiazol-2-amine] was tested, and the IC50 [1] was 513 nM and the IC50 [2] was 20000 nM.
